Each compound was assayed against CCR2 (Homo sapiens (Human), UniProt P41597) (assay: Calcium activity assayed on the FLIPR Tetra in HEK-Gqi5 cells stably expressing CCR2). Details: FLIPR Tetra calcium assay.
Assay type: cell-based
Procedure: HEK-Gqi5 cells stably expressing CCR2 were cultured in (DMEM high glucose, 10% FBS, 1% PSA, 400 μg/ml geneticin and 50 μg/ml hygromycin. Appropriate positive control chemokines (MCP-1, MIP1A or RANTES) was used as the positive control agonist for screening compound-induced calcium activity assayed on the FLIPR^Tetra. The drug plates were prepared in 384-well microplates using the EP3 and the MuItiPROBE robotic liquid handling systems. Compounds were synthesized and tested for CCR^2 activity.

Sequence of CCR2 (P41597 whole entry, species assumed): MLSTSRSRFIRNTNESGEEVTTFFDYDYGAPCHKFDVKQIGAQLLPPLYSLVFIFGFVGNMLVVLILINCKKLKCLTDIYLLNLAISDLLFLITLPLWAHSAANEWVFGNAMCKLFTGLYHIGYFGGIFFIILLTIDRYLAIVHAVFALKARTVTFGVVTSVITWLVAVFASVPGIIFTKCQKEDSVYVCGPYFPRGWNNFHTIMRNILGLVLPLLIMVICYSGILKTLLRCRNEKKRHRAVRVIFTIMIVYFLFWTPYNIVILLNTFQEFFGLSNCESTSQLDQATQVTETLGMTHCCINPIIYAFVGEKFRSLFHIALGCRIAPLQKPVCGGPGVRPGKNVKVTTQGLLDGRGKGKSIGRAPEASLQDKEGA

Row | Compound | CCR2 % ANTAGONISM | IC50
1 | O=[N+]([O-])c1cccc([S+]([O-])c2ccc(Cl)cc2NS(=O)(=O)c2ccc(Cl)c(C(F)(F)F)c2)c1 (centres unmarked) | 85% | 509 nM
2 | CN(C)C(=O)C[S+]([O-])c1ccc(Cl)cc1NS(=O)(=O)c1ccc(Cl)c(C(F)(F)F)c1 (centres unmarked) [2-{[4-chloro-2-({[4-chloro-3-(trifluoromethyl)phenyl]sulfonyl}amino)phenyl]sulfinyl}-N,N-dimethylacetamide] | 100% | 268 nM
3 | CNC(=O)C[S+]([O-])c1ccc(Cl)cc1NS(=O)(=O)c1ccc(Cl)c(C(F)(F)F)c1 (centres unmarked) [2-{[4-chloro-2-({[4-chloro-3-(trifluoromethyl)phenyl]sulfonyl}amino)phenyl]sulfinyl}-N-methylacetamide] | 91% | 329 nM
4 | CN(C)C(=O)CS(=O)(=O)c1ccc(Cl)cc1NS(=O)(=O)c1ccc(Cl)c(C(F)(F)F)c1 [2-{[4-chloro-2-({[4-chloro-3-(trifluoromethyl)phenyl]sulfonyl}amino)phenyl]sulfonyl}-N,N-dimethylacetamide] | 98% | 462 nM
5 | CNC(=O)CS(=O)(=O)c1ccc(Cl)cc1NS(=O)(=O)c1ccc(Cl)c(C(F)(F)F)c1 [2-{[4-chloro-2-({[4-chloro-3-(trifluoromethyl)phenyl]sulfonyl}amino)phenyl]sulfonyl}-N-methylacetamide] | 96% | 469 nM
6 | CN(C)C(=O)CSc1ccc(Cl)cc1NS(=O)(=O)c1ccc(Cl)c(C(F)(F)F)c1 [2-{[4-chloro-2-({[4-chloro-3-(trifluoromethyl)phenyl]sulfonyl}amino)phenyl]thio}-N,N-dimethylacetamide] | 92% | 118 nM
7 | C[S+]([O-])c1ccc(Cl)cc1NS(=O)(=O)c1ccc(Cl)c(Cl)c1 (centres unmarked) [3,4-dichloro-N-[5-chloro-2-(methylsulfinyl)phenyl]benzenesulfonamide] | 87% | 44 nM
8 | CN(C)C(=O)CC[S+]([O-])c1ccc(Cl)cc1NS(=O)(=O)c1cc2ccccc2o1 (centres unmarked) [3-({2-[(1-benzofuran-2-ylsulfonyl)amino]-4-chlorophenyl}sulfinyl)-N,N-dimethylpropanamide] | 104% | 160 nM
9 | CN(C)C(=O)CCS(=O)(=O)c1ccc(Cl)cc1NS(=O)(=O)c1cc2ccccc2o1 [3-({2-[(1-benzofuran-2-ylsulfonyl)amino]-4-chlorophenyl}sulfonyl)-N,N-dimethylpropanamide] | 99% | 76 nM
10 | CN(C)C(=O)CCSc1ccc(Cl)cc1NS(=O)(=O)c1cc2ccccc2o1 [3-({2-[(1-benzofuran-2-ylsulfonyl)amino]-4-chlorophenyl}thio)-N,N-dimethylpropanamide] | 100% | 146 nM
11 | CN(C)C(=O)CC[S+]([O-])c1ccc(Cl)cc1NS(=O)(=O)c1ccc(F)cc1F (centres unmarked) [3-[(4-chloro-2-{[(2,4-difluorophenyl)sulfonyl]amino}phenyl)sulfinyl]-N,N-dimethylpropanamide] | 93% | 1480 nM
12 | CN(C)C(=O)CCS(=O)(=O)c1ccc(Cl)cc1NS(=O)(=O)c1ccc(F)cc1F [3-[(4-chloro-2-{[(2,4-difluorophenyl)sulfonyl]amino}phenyl)sulfonyl]-N,N-dimethylpropanamide] | 89% | 1580 nM
13 | CN(C)C(=O)CCSc1ccc(Cl)cc1NS(=O)(=O)c1ccc(F)cc1F [3-[(4-chloro-2-{[(2,4-difluorophenyl)sulfonyl]amino}phenyl)thio]-N,N-dimethylpropanamide] | 43% | 2150 nM
14 | CN(C)C(=O)CC[S+]([O-])c1ccc(Cl)cc1NS(=O)(=O)c1ccc(Cl)cc1F (centres unmarked) [3-[(4-chloro-2-{[(4-chloro-2-fluorophenyl)sulfonyl]amino}phenyl)sulfinyl]-N,N-dimethylpropanamide] | 99% | 221 nM
15 | CN(C)C(=O)CCS(=O)(=O)c1ccc(Cl)cc1NS(=O)(=O)c1ccc(Cl)cc1F [3-[(4-chloro-2-{[(4-chloro-2-fluorophenyl)sulfonyl]amino}phenyl)sulfonyl]-N,N-dimethylpropanamide] | 97% | 211 nM
16 | CN(C)C(=O)CCSc1ccc(Cl)cc1NS(=O)(=O)c1ccc(Cl)cc1F [3-[(4-chloro-2-{[(4-chloro-2-fluorophenyl)sulfonyl]amino}phenyl)thio]-N,N-dimethylpropanamide] | 78% | 771 nM
17 | C[S+]([O-])c1ccc(Cl)cc1NS(=O)(=O)c1cccc(Cl)c1F (centres unmarked) [3-chloro-N-[5-chloro-2-(methylsulfinyl)phenyl]-2-fluorobenzenesulfonamide] | 101% | 61 nM
18 | CS(=O)(=O)c1ccc(Cl)cc1NS(=O)(=O)c1cccc(Cl)c1F [3-chloro-N-[5-chloro-2-(methylsulfonyl)phenyl]-2-fluorobenzenesulfonamide] | 101% | 116 nM

Row | Compound | CCR2 % ANTAGONISM | IC50
19 | CSc1ccc(Cl)cc1NS(=O)(=O)c1cccc(Cl)c1F [3-chloro-N-[5-chloro-2-(methylthio)phenyl]-2-fluorobenzenesulfonamide] | 94% | 1920 nM
20 | CN(C)C(=O)CC[S+]([O-])c1ccc(Cl)cc1NS(=O)(=O)c1ccc(Cl)c(C(F)(F)F)c1 (centres unmarked) [3-{[4-chloro-2-({[4-chloro-3-(trifluoromethyl)phenyl]sulfonyl}amino)phenyl]sulfinyl}-N,N-dimethylpropanamide] | 89% | 96 nM
21 | CC(C)NC(=O)CC[S+]([O-])c1ccc(Cl)cc1NS(=O)(=O)c1ccc(Cl)c(C(F)(F)F)c1 (centres unmarked) [3-{[4-chloro-2-({[4-chloro-3-(trifluoromethyl)phenyl]sulfonyl}amino)phenyl]sulfinyl}-N-isopropylpropanamide] | 93% | 1790 nM
22 | NC(=O)CC[S+]([O-])c1ccc(Cl)cc1NS(=O)(=O)c1ccc(Cl)c(C(F)(F)F)c1 (centres unmarked) [3-{[4-chloro-2-({[4-chloro-3-(trifluoromethyl)phenyl]sulfonyl}amino)phenyl]sulfinyl}propanamide] | 99% | 797 nM
23 | CN(C)C(=O)CCS(=O)(=O)c1ccc(Cl)cc1NS(=O)(=O)c1ccc(Cl)c(C(F)(F)F)c1 [3-{[4-chloro-2-({[4-chloro-3-(trifluoromethyl)phenyl]sulfonyl}amino)phenyl]sulfonyl}-N,N-dimethylpropanamide] | 93% | 217 nM
24 | CN(C)C(=O)CCSc1ccc(Cl)cc1NS(=O)(=O)c1ccc(Cl)c(C(F)(F)F)c1 [3-{[4-chloro-2-({[4-chloro-3-(trifluoromethyl)phenyl]sulfonyl}amino)phenyl]thio}-N,N-dimethylpropanamide] | 80% | 506 nM
25 | CC(C)NC(=O)CCSc1ccc(Cl)cc1NS(=O)(=O)c1ccc(Cl)c(C(F)(F)F)c1 [3-{[4-chloro-2-({[4-chloro-3-(trifluoromethyl)phenyl]sulfonyl}amino)phenyl]thio}-N-isopropylpropanamide] | 59% | 1030 nM
26 | CN(C)C(=O)CCC[S+]([O-])c1ccc(Cl)cc1NS(=O)(=O)c1cc2ccccc2o1 (centres unmarked) [4-({2-[(1-benzofuran-2-ylsulfonyl)amino]-4-chlorophenyl}sulfinyl)-N,N-dimethylbutanamide] | 54% | –
27 | CN(C)C(=O)CCCS(=O)(=O)c1ccc(Cl)cc1NS(=O)(=O)c1cc2ccccc2o1 [4-({2-[(1-benzofuran-2-ylsulfonyl)amino]-4-chlorophenyl}sulfonyl)-N,N-dimethylbutanamide] | 98% | 1000 nM
28 | C[S+]([O-])c1ccc(Cl)cc1NS(=O)(=O)c1ccc(Br)cc1 (centres unmarked) [4-bromo-N-[5-chloro-2-(methylsulfinyl)phenyl]benzenesulfonamide] | 94% | 116 nM
29 | CS(=O)(=O)c1ccc(Cl)cc1NS(=O)(=O)c1ccc(Br)cc1 [4-bromo-N-[5-chloro-2-(methylsulfonyl)phenyl]benzenesulfonamide] | 84% | 403 nM
30 | CSc1ccc(Cl)cc1NS(=O)(=O)c1ccc(Br)cc1 [4-bromo-N-[5-chloro-2-(methylthio)phenyl]benzenesulfonamide] | 76% | 1330 nM
31 | CC[S+]([O-])c1ccc(Cl)cc1NS(=O)(=O)c1ccc(Cl)c(C(F)(F)F)c1 (centres unmarked) [4-chloro-N-[5-chloro-2-(ethylsulfinyl)phenyl]-3-(trifluoromethyl)benzenesulfonamide] | 78% | 50 nM
32 | CCS(=O)(=O)c1ccc(Cl)cc1NS(=O)(=O)c1ccc(Cl)c(C(F)(F)F)c1 [4-chloro-N-[5-chloro-2-(ethylsulfonyl)phenyl]-3-(trifluoromethyl)benzenesulfonamide] | 90% | 88 nM
33 | CCSc1ccc(Cl)cc1NS(=O)(=O)c1ccc(Cl)c(C(F)(F)F)c1 [4-chloro-N-[5-chloro-2-(ethylthio)phenyl]-3-(trifluoromethyl)benzenesulfonamide] | 81% | 193 nM
34 | CC(C)Sc1ccc(Cl)cc1NS(=O)(=O)c1ccc(Cl)c(C(F)(F)F)c1 [4-chloro-N-[5-chloro-2-(isopropylthio)phenyl]-3-(trifluoromethyl)benzenesulfonamide] | 72% | 379 nM
35 | C[S+]([O-])c1ccc(Cl)cc1NS(=O)(=O)c1ccc(Cl)cc1F (centres unmarked) [4-chloro-N-[5-chloro-2-(methylsulfinyl)phenyl]-2-fluorobenzenesulfonamide] | 103% | 85 nM
36 | C[S+]([O-])c1ccc(Cl)cc1NS(=O)(=O)c1ccc(Cl)c(C(F)(F)F)c1 (centres unmarked) [4-chloro-N-[5-chloro-2-(methylsulfinyl)phenyl]-3-(trifluoromethyl)benzenesulfonamide] | 78% | 14 nM
